Tested on: HDAC (HeLa nuclear extract, rich in HDAC activity)
Assay: HDAC AK-501 colorimetric (Color de Lys) inhibition assay with HeLa nuclear extract
Type: biochemical, human
Conditions: Color de Lys substrate 0.2 mM final, 20 minutes at 37° C., reading at 405 nm, from straight line of 5 concentrations
Procedure: The inhibitory activity of the compounds obtained in the previous Examples 1, 2, 3 and 5 was evaluated, for which the HDAC AK-501 colorimetric titration kit for inhibition, supplied by Biomol, was used, following the indicated protocol.
The process of the assay was carried out in two steps. In the first step, the Color de Lys® substrate, containing an acetylated lysine group, was incubated with a sample of HeLa (human cervical cancer cell line) nuclear extract, rich in HDAC activity. In the second step, the previous mixture was treated with the Color de Lys® developer, which caused an increase in the quantifiable color intensity at 405 nm. There is a linear correlation between the absorption and the deacetylation of lysine within instrumental limits. The addition of an HDAC inhibitor gives rise to a lower deacetylation of the Color de Lys® substrate and to a decrease in the intensity at 405 nm.
The operating procedure was the following: • 1. The buffer, diluted (250 nM) TSA (Trichostatin A) and the inhibitor to be assayed were added at the desired concentrations in the suitable wells of the plate (See Table below). • 2. The Hela extract was added, except to the enzyme-free control. • 3. The plate and the Color de Lys® substrate were thermostatted at 37° C. • 4. The reactions were started adding the 0.4 mM substrate (final concentration of the substrate 0.2 mM) in each well and it was stirred. • 5. A reaction time of 20 minutes at 37° C. was allowed. • 6. The Color de Lys® developer, prepared approximately 30 minutes before its use, was added (the developer was used diluted 20 times with an amount of TSA resulting in a final concentration of 1 μM in the assay). It was allowed to react for 15 minutes at 37° C. • 7. The reading was made at 405 nm.
(×5) and (×2) indicate the dilution factors.
The result of the reading using 5 different concentrations taken between 0.1-2.0 mM of each inhibitor allowed obtaining a straight line of concentrations versus enzymatic activity. The concentration necessary to deduce the 50% enzymatic activity (IC50) was calculated from the equation of said line.

Compound	IC50
O=C(CCCCCN1C(=O)c2ccccc2S1(=O)=O)NO [Compound 1, 6-(1,1-dioxide-3-oxo-2H-benzo[d]isothiazol-2-yl)-N-hydroxyhexanamide]	1500 nM
O=C(CCCCCCN1C(=O)c2ccccc2S1(=O)=O)NO [Compound 2, 7-(1,1-dioxide-3-oxo-2H-benzo[d]isothiazol-2-yl)-N-hydroxyheptanamide]	250 nM
O=C(NO)c1ccc(CN2C(=O)c3ccccc3S2(=O)=O)cc1 [Compound 3, 4-[(1,1-dioxide-3-oxo-2H-benzo[d]isothiazol-2-yl)methyl]-N-hydroxybenzamide]	1150 nM
O=C(CCCCCOc1nsc2ccccc12)NO [Compound 5, 6-[(benzo[d]isothiazol-3-yl)oxa]-N-hydroxyhexanamide]	210 nM
